The source of these data is patent publication US4975434A, “Antiviral and anticancer cyclopentenyl cytosine” (priority 1989, dated 1990).

Data set [1] relates to tumors. Put plainly: Antitumor activity (general statement).
For data set [2], the system named is Vesicular Stomatitis virus, strain Indiana. Format: cell-based. The following applies: L929 cells, strain Indiana; two determinations.
For data set [3], the system named is enzyme which hydrolyzes S-adenosyl-L-homocysteine (AdoHcy). The following applies: literature; cited from earlier work.
The subject of data set [4] is phosphorylation and deamination. The following applies: cited from earlier work.
The subject of the next data set is LOX Melanoma. Put plainly: Human tumor xenograft in athymic mice, LOX melanoma (intraperitoneal). The following applies: for % ILS: Table IV, QD1-9. On the technique in general: In xenograft studies the graft and the host belong to different species.
The subject of another data set is CTP synthesase. The data set is described as follows: Inhibition of CTP synthesis (CTP synthesase). The format is biochemical.
The subject of data set [5] is L1210 leukemia. The data set is described as follows: In vivo antitumor test, L1210 leukemia in mice. The following applies: Table IV, QD1-9, terminated day 60.
For the next data set, the system named is MX-1 Mammary. Put plainly: Human tumor xenograft in athymic mice, MX-1 mammary (subrenal capsule). As to conditions: for % tumor weight inhibition: Table IV, QD1-9, day 0 to day 11.
The subject of data set [6] is L1210 leukemia. As to conditions: cited from earlier work; for increase in life span: literature values.
Data set [7] has as its system Herpes simplex type 2, strain MS. The data set is described as follows: Cytopathogenic inhibition test, HSV-2. Format: cell-based. As to conditions: Vero cells, strain MS; for IC50: Human alphaherpesvirus 2, inhibition of virus-induced cytopathogenic effects, read-out: ID50 (the source's name). (Protection from cytopathic effect is a common read-out in antiviral testing.)

The test system of data set [8] is Herpes simplex type 1 (TK-), strain HF. Put plainly: microbe, parasite or virus in culture. Format: cell-based.
The test system of data set [9] is Herpes simplex type 1 (TK+), strain E-377. The data set is described as follows: Cytopathogenic inhibition test, HSV-1 TK+. The format is cell-based. The following applies: for IC50: Human alphaherpesvirus 1, inhibition of virus-induced cytopathogenic effects, read-out: ID50 (the source's name); for IC50 / VR (virus rating): Vero cells, strain E-377.
Data set [10] concerns Vaccinia, strain Lederle CA. The data set is described as follows: microbe, parasite or virus in culture. Format: cell-based.
For data set [11], the system named is vaccinia virus (IHD strain). Format: in vivo, mouse (CD-I). As to conditions: Ara-A 300 mg/kg, QD 1-7 subcutaneous; PBS control 45.8.
Another data set deals with H.Ep.-2 cells. As to conditions: literature; cited from earlier work.
Another data set concerns L1210 tumor cells. The following applies: literature; cited from earlier work.
For data set [12], the system named is quiescent normal cells; malignant cell lines. The following applies: subtoxic concentrations; literature; cited from earlier work.
The next data set concerns adenosine deaminase. As to conditions: literature; cited from earlier work.
The next data set relates to two other RNA viruses. The following applies: literature; cited from earlier work.
The subject of data set [13] is Herpes simplex type 1 (TK-), strain HF. The following applies: literature; cited from earlier work.
Another data set concerns influenza viruses. As to conditions: literature; cited from earlier work.
In another data set the test system is several DNA viruses. The following applies: literature; cited from earlier work.
A further data set deals with Rhinovirus 1A. As to conditions: literature; cited from earlier work.
The test system of data set [14] is MRC5 (diploid human embryonic lung cells). The data set is described as follows: Toxicity to MRC5 host cells (gross cell morphology) in the CMV assay. As to conditions: 320 μg/ml.
Data set [15] relates to Cytomegalovirus, strain AD 169. Put plainly: Cytomegalovirus (CMV) Yield Reduction Assay. Format: cell-based.
Data set [16] has as its system Varicella-Zoster virus, isolate DM625. The data set is described as follows: Varicella-Zoster Virus (VZV) Plaque Reduction Assay. Format: cell-based. As to conditions: Human alphaherpesvirus 3, 144 h, Huf cells.
For the next data set, the system named is cells. The following applies: literature; cited from earlier work.
Data set [17] has as its system Influenza (Hong Kong), strain A2 /Aichi/2/68. The data set is described as follows: microbe, parasite or virus in culture. Format: cell-based, Influenza virus; host MDCK (Madin Darby canine kidney cells).
The test system of data set [18] is Punta Toro virus, strain Adames. The data set is described as follows: microbe, parasite or virus in culture. The format is cell-based, Punta Toro virus; host Vero cells.
Data set [19] relates to Janapese Encephalitis virus, strain Najayama. Put plainly: Antiviral test in vitro, Japanese encephalitis virus. Format: cell-based, Japanese encephalitis virus; host Vero cells.
The test system of data set [20] is Yellow Fever virus, strain Asibi. The data set is described as follows: microbe, parasite or virus in culture. Format: cell-based, Yellow Fever virus; host Vero cells.
In data set [21] the test system is tumors. As to conditions: literature; cited from earlier work.

SMILES strings stand for the structures. ≈ marks a conversion by molar mass, not a printed value. Where “and” joins values, the source holds several entries; their conditions need not be identical. Equal entries are not always repeated. Where two headings read alike, the source gives them in different places.

As for `Nc1ccn([C@@H]2C=C(CO)[C@@H](O)[C@@H]2O)c(=O)n1`, the antitumor activity entry in the data set on tumors [1] is reported as “complete lack of antitumor activity”.
In the case of `Nc1nccc2c1ncn2[C@@H]1C[C@H](CO)[C@@H](O)[C@H]1O` [3-Deazaaristeromycin, 3-deazaaristeromycin, reference compound], the “VR (virus rating)” value in [2] was 2.1 and 3.0. For the same molecule, the “inhibition of AdoHcy hydrolase” value in data set [3] is “very potent and specific inhibitor”. Further, the phosphorylation and deamination entry in data set [4] is “resistance towards phosphorylation and deamination”.
`O=C1C=CN([C@@H]2O[C@H](CO)[C@@H](O)[C@H]2O)C(=O)C1` [3-Deazauridine, 3-deazauridine, reference compound]: the “% ILS” value with LOX Melanoma (3-Deazauridine 200 mg/kg) is 5%; in the data set with LOX Melanoma (3-Deazauridine 300 mg/kg) it was 4%; in the data set on L1210 leukemia [5] (3-Deazauridine 25 mg/kg) it was 72%; in the data set on L1210 leukemia [5] (3-Deazauridine 50 mg/kg), 61%; in the data set with L1210 leukemia [5] (3-Deazauridine 100 mg/kg), 80%. The “tumor burden at the end of treatment” value in the data set with LOX Melanoma (in vivo) is listed as “three-log10 increase in tumor burden”. Also, the outcome in the data set on LOX Melanoma (result in words) and in the data set on MX-1 Mammary (result in words) was inactive. For the same molecule, the “inhibition of CTP synthesis” value in the data set on CTP synthesase (result in words) is “powerful inhibitors of CTP synthesis”. The “% tumor weight inhibition” value in the data set on MX-1 Mammary (3-Deazauridine 200 mg/kg) worked out at 11%; in the data set with MX-1 Mammary (3-Deazauridine 300 mg/kg) it was 64%.
In the case of `Nc1nccc2c1ncn2[C@@H]1O[C@H](CO)[C@@H](O)[C@H]1O` [3-deazaadenosine], the phosphorylation and deamination result in data set [4] (literature) is “resistance towards phosphorylation and deamination”.
Take `Nc1ccn(C2CC(CO)C(O)C2O)c(=O)n1` (stereo not drawn) ["ara"-analogue]: the “increase in life span” value in the data set with L1210 leukemia [6] was 104%. Moreover, the “activity against L1210 leukemia” value in the data set with L1210 leukemia [6] (literature, J. Pharm. Chem., 68, 668 (1979)) is recorded as “activity”.
Take `Nc1nc2c(ncn2COCCO)c(=O)[nH]1` [Acyclovir]: the IC50 was determined as 5.3 µg/mL (≈ 23.5 µM) in data set [7] and 0.7 µg/mL (≈ 3.11 µM) in [9]. The “VR (virus rating)” value in [7] is on record as 4.5; in [9], 6.7. Moreover, the antiviral activity result is “inactive” in data set [8] (result in words) and “more active that CPE-C” in data set [9] (result in words).
Turning to `Nc1ncnc2c1ncn2[C@@H]1O[C@H](CO)[C@@H](O)[C@@H]1O` [Ara-A, arabinosyl adenine, reference compound], the IC50 stood at 49.9 µg/mL (≈ 187 µM) in [7]; 2.1 µg/mL (≈ 7.86 µM) in [8] (Human alphaherpesvirus 1, Vero, in Chlorocebus sabaeus, read-out: ID50, Vero cells, strain HF, inhibition of virus-induced cytopathogenic effects, two determinations); 13.6 µg/mL (≈ 50.9 µM) in data set [9]; 9.8 µg/mL (≈ 36.7 µM) in data set [10] (Orthopoxvirus vaccinia, Vero, in Chlorocebus sabaeus, read-out: ID50). In addition, the “VR (virus rating)” value was 1.3 in data set [7]; 3.3 and 2.9 in [8] (Vero cells, strain HF, two determinations); 1.8 in data set [9]; 3.1 in [10] (Vero cells, strain Lederle CA). Besides, the “Pox Count (mean value, 20 mice)” value in data set [11] is recorded as 2.8.
`Nc1ncnc2c1ncn2[C@@H]1C[C@H](CO)[C@@H](O)[C@H]1O` [C-Ado]: the cytotoxicity entry in the data set on H.Ep.-2 cells is “highly cytotoxic”. Further, in the data set on L1210 leukemia [6] (literature), the “activity in the in vivo mouse L1210 model” value is recorded as “inactivity in the in vivo mouse L1210 model system”. In addition, in the data set with L1210 tumor cells, the cytotoxicity result was “highly cytotoxic”. Also, in data set [12], the “effect on malignant cell lines” value was “inhibited growth” and the “effect on quiescent normal cells” value is “induced cell proliferation”. Besides, the “affinity for adenosine deaminase relative to adenosine” value in the data set on adenosine deaminase is listed as “a hundredfold lower”.
As to `Nc1ccn([C@@H]2C[C@H](CO)[C@@H](O)[C@H]2O)c(=O)n1` [Carbodine], the antiviral activity result was “Slight carbodine activity” in the data set with two other RNA viruses, “very effective” in the data set with influenza viruses, “Good activity” in the data set with several DNA viruses and “Slight carbodine activity” with Rhinovirus 1A. Moreover, in the data set on L1210 leukemia [6], the “increase in life span” value is recorded as 82%. Moreover, the “potency against HSV-1 TK- vs TK+” value in data set [13] was “more potent against a strain of the HSV-1 virus deficient in its ability to induce thymidine kinase”.
For the molecule `Nc1nc2c(ncn2COC(CO)CO)c(=O)[nH]1` [DHPG, 9(1,3-Dihydroxy-2-propoxymethyl)guanine, reference compound], the “Host cell toxicity (gross cell morphology)” value in data set [14] is given as “Very slightly toxic”. Moreover, in data set [15] (Human betaherpesvirus 5, 144 h, 1.0 μg/ml, MRC5 cells, read-out: Reduction in Virus Yield), the log reduction at 1 µg/mL was 1.1. The log reduction at 10 µg/mL in [15] (Human betaherpesvirus 5, 144 h, 10 μg/ml, MRC5 cells, read-out: Reduction in Virus Yield) came out at 3.8. Besides, in data set [15] (Human betaherpesvirus 5, 144 h, 32 μg/ml, MRC5 cells, read-out: Reduction in Virus Yield), the log reduction at 32 µg/mL came out at 5.3. Also, the log reduction at 100 µg/mL in [15] (Human betaherpesvirus 5, 144 h, 100 μg/ml, MRC5 cells, read-out: Reduction in Virus Yield) turned out to be 5.3. Moreover, in data set [15] (Human betaherpesvirus 5, 144 h, 320 μg/ml, MRC5 cells, read-out: Reduction in Virus Yield), the log reduction at 320 µg/mL turned out to be 5.3. Besides, the antiviral activity entry in data set [15] (result in words) is recorded as “superior”. For the same molecule, testing at 1 µg/mL in data set [16] (1.0 μg/ml) gave an inhibition of 44%. At 3.2 µg/mL the inhibition in data set [16] (3.2 μg/ml) was 46%. Moreover, 10 µg/mL produced 69% inhibition in data set [16] (10 μg/ml). At 32 µg/mL the inhibition in data set [16] (32 μg/ml) was 85%. Further, 100 µg/mL produced 100% inhibition in [16] (100 μg/ml). Moreover, the inhibition – broadly, the relative decrease from the control value, in per cent – at 320 µg/mL in data set [16] (320 μg/ml) came to 100%.
In the case of `Nc1ncnc2c1ncn2[C@@H]1C=C(CO)[C@@H](O)[C@H]1O` [Neplanocin A, 9[(1'R,2'S,3'R)-4'-Hydroxymethyl-2',3'dihydroxy-4 cyclopenten-1'-yl]adenine], the “side effects including cytotoxicity” value with cells was “multiplicity of side effects including cytotoxicity”. The “inhibition of AdoHcy hydrolase” value in data set [3] is “potent inhibitor”. Besides, in data set [4] (literature), the phosphorylation and deamination entry is reported as “readily phosphorylated”.
Take `NC(=O)c1ncn([C@@H]2O[C@H](CO)[C@@H](O)[C@H]2O)n1` [Ribavirin, reference compound]: the “VR (virus rating)” value in data set [17] was 3.6; in [18] it was 1.8; in data set [19] (Vero cells, strain Najayama), 2.4. Further, the IC50 in [17] (MDCK, in Canis lupus familiaris, read-out: ID50) was 18.7 µg/mL (≈ 76.6 µM); in data set [18] (Punta Toro virus, Vero, read-out: ID50) it was 20.1 µg/mL (≈ 82.3 µM); in data set [19] (Japanese encephalitis virus, Vero, read-out: ID50), 3 µg/mL (≈ 12.3 µM).
As to `c1c[se]cn1` [Selenazole, reference compound], the “VR (virus rating)” value in [20] (Vero cells, strain Asibi) turned out to be 2.4. For the same molecule, in data set [20] (Yellow fever virus, Vero, read-out: ID50), the IC50 is 1.8 µg/mL (≈ 13.6 µM). The “TI (therapeutic index)” value in [20] (minimum toxic drug concentration / ID50, Vero cells) was 0.6.
For `Nc1ccn([C@@H]2O[C@H](CO)[C@@H](O)[C@@H]2O)c(=O)n1` [ara-C, cytosine arabinoside], the “activity against human and animal tumors” value in the data set with tumors [21] is recorded as “well-known activity”.
For the molecule `Nc1ccn([C@@H]2C=C(COP(=O)(O)OP(=O)(O)OP(=O)(O)O)[C@@H](O)[C@H]2O)c(=O)n1` [triphosphate metabolite of CPE-C], the “inhibition of CTP-synthesase” value in the data set on CTP synthesase (triphosphate isolated from L1210 cell extracts) was “responsible for the inhibition of CTP-synthesase”.
